Assay results published in PMC8865654, “Chiral evasion and stereospecific antifolate resistance in Staphylococcus aureus” (PLoS Computational Biology, 2022).

Columns and labels:
[1] = molecular target: T1, Staphylococcus aureus dihydrofolate reductase (SaDHFR), wild type (Staphylococcus aureus, UniProt P0A017); experiment: X-ray crystal structure (re-refined from 4XEC data and newly deposited); also enzyme inhibition with t-NADPH pre-incubation (Fig E in S1 Text); assay type: binding
T1 construct: gene folA
T1 sequence (P0A017 2-159): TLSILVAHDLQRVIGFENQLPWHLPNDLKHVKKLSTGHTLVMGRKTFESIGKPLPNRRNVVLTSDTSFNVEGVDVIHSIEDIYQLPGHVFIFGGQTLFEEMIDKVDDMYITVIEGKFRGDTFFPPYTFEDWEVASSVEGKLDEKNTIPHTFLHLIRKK

[2] = molecular target: T1, Staphylococcus aureus dihydrofolate reductase (SaDHFR), wild type; experiment: X-ray crystal structure (ternary with R-27); enzyme inhibition assay with isolated t-NADPH; assay type: biochemical

Row | Structure (SMILES) | X-ray crystal structure (re-refined from 4XEC data and newly deposited); also en [1] | IC50 [2] [µM]
1 | CCc1nc(N)nc(N)c1C#C[C@H](C)c1cc(OC)cc(-c2ccncc2)c1 [R-27] | the PDB ID for R-27:t-NADPH:SaDHFR is 7T7S | 
2 | NC(=O)C1=CN2[C@@H]3O[C@H](COP(=O)(O)OP(=O)(O)OC[C@H]4O[C@@H](n5cnc6c(N)ncnc65)[C@H](OP(=O)(O)O)[C@@H]4O)[C@@H](O)[C@H]3O[C@@H]2CC1 [t-NADPH] |  | 111 ± 6
